Results: US20260078454A1, “MULTIPLE ANTIBIOTIC BACTERIAL RESPONSE” (priority 2022, published 2026)

Assays:
Acinetobacter baumannii = type: cell-based; settings: for differentially expressed transcripts in common between amikacin and gentamicin: 3.5 hours of exposure; for number of differentially expressed transcripts: pan-susceptible strain, MIC breakpoint, vs no-antibiotic control
Protocol: A pan-susceptible Acinetobacter baumannii was cultured and exposed to each of the nine conditions (including a no-antibiotic control) above as a single-exposure condition, meaning only one antibiotic per sample, no combination of drugs. Antibiotics were dosed at the resistance break point concentration (MIC breakpoint) for each compound according to the 2023 CLSI M100 guidelines. Antibiotic-treated and control cultures were maintained for 0.5 hours, 1.5 hours, 2.5 hours, and 3.5 hours and subsequently harvested to conduct RNA-seq, as discussed above in Example 3. Multiple replicates of this experimental set-up were performed to assess variance of the transcriptional response.
Cultures at the appropriate OD595 were transferred to a 37° C. incubator until the OD595 was between 0.9-1.4. The culture was distributed into individual treatment tubes containing antibiotics (or not for the control condition) and incubated at 37° C. for the specified exposure times (0.5, 1.5, 2.5, 3.5 hrs). At each timepoint, an aliquot of each of the treated and control culture conditions was removed and nucleic acid was extracted on the bioMérieux EMAG platform. […] The nucleic acid extracts were then treated with DNAse to remove all genomic DNA and extracted a second time, resulting in a pure RNA sample for each condition. These RNA samples were sent to the High-Throughput Genomics Core at the Huntsman Cancer Institute at the University of Utah for RNA-sequencing on the Illumina NovaSeq 6000 platform. A total of five biological replicates were made, which would result in 180 RNA-seq samples (36*5), although due to some instrument difficulties an actual total of 161 samples were sent to the sequencing core lab.
Differential expression analysis of RNA-seq read data is as follows. Read data was adapter and quality trimmed using bbduk (bbmap_38.86). Adapter and quality trimmed reads (fastq) were mapped to an Acinetobacter baumannii genome using Kallisto (Kallisto v0.48.0) to generate read counts for each annotated transcript in the genome. Read count data (all conditions) were normalized using Sleuth (0.30.1) and differential expression tests conducted between each independent antibiotic exposure condition and the no-antibiotic time matched control using the lrt test within Sleuth using a qvalue significance cutoff of 0.05 to determine differential expression. Lists of differentially expressed transcripts for each antibiotic and each timepoint were generated and aggregated according to the MOA classes (see prior) to determine if there was significant overlap in the transcriptional response to each MOA class of antibiotics.

Pseudomonas aeruginosa = assay: RNA-seq differential expression after single and combined antibiotic exposure; type: cell-based; settings: pan susceptible strain; CLSI resistance break point concentration; 60 minutes; regardless of whether the other two antibiotics were present
Protocol: RNA-sequencing (“RNA-seq”) was conducted using two strains of Pseudomonas aeruginosa: one a resistant strain and the second a pan susceptible strain. The strains were cultured to an optical density of 1.0, or approximately 1.5×10^9 genomic copies/mL (measured using digital PCR). The culture was then aliquoted into four independent culture tubes, three of which contained one single antibiotic and the fourth was a no-antibiotic control. Once mixed with antibiotics, where each antibiotic was dosed at its CLSI resistance break point concentration based upon 2021 guidance, the culture aliquots were returned to an incubator set to 37° C. using ambient air and agitated using orbital mixing for 60 minutes. […] Recovered reads were processed through an internal RNA-seq bioinformatics pipeline that includes the following steps: read quality and adapter trimming, surviving reads were assigned a genomic position in the reference P. aeruginosa genome PA01 using Kallisto (and read counts with dispersion estimates calculated), and differential expression analysis comparing each antibiotic treatment with the no-antibiotic control data set were conducted using Sleuth for each strain. […]

NCC[C@H](O)C(=O)N[C@@H]1C[C@H](N)[C@@H](O[C@H]2O[C@H](CN)[C@@H](O)[C@H](O)[C@H]2O)[C@H](O)[C@H]1O[C@H]1O[C@H](CO)[C@@H](O)[C@H](N)[C@H]1O [amikacin]
differentially expressed transcripts in common between amikacin and gentamicin (Acinetobacter baumannii): 93.2%
number of differentially expressed transcripts (Acinetobacter baumannii; 0.5 hrs of exposure): 1825

C[C@@H](O)[C@H]1C(=O)N2C(C(=O)O)=C(S[C@@H]3CN[C@H](C(=O)N(C)C)C3)[C@H](C)[C@H]12 [meropenem]
regulation of antibiotic specific response transcripts (Pseudomonas aeruginosa): up regulation of five transcripts

C[C@H]1COc2c(N3CCN(C)CC3)c(F)cc3c(=O)c(C(=O)O)cn1c23 [levofloxacin]
number of differentially expressed transcripts (Acinetobacter baumannii; 0.5 hrs of exposure): 1394

gentamicin
overlap of gentamicin response with amikacin response (Acinetobacter baumannii; 0.5 hrs of exposure): fully contained within the amikacin response
differentially expressed transcripts in common between amikacin and gentamicin (Acinetobacter baumannii): 93.2%
number of differentially expressed transcripts (Acinetobacter baumannii; 0.5 hrs of exposure): 6
regulation of antibiotic specific response transcripts (Pseudomonas aeruginosa): up regulation of eight transcripts
